The record followed here is ChEMBL document CHEMBL1201862, “PubChem BioAssay data set” (2004).

Usually EC50 stands for the concentration at which the effect is half-maximal. For orientation: AC50 means the midpoint of the concentration-response curve, whichever way the signal moves.

Active and inactive are the calls of the source.

One assay deals with T1, Streptokinase A (Streptococcus pyogenes serotype M1, UniProt P10520).
T1 sequence (P10520 whole entry): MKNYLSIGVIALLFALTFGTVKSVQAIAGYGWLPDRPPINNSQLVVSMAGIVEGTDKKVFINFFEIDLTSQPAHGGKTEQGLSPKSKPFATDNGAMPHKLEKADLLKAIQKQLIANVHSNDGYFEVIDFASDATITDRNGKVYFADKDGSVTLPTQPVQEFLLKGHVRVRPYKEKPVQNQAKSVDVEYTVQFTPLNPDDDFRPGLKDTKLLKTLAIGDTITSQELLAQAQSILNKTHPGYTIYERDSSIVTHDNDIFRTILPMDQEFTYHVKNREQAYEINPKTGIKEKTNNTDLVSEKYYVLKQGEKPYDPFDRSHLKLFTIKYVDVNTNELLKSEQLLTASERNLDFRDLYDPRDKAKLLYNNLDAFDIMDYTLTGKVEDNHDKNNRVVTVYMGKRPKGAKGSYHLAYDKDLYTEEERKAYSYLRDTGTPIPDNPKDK
Put plainly: viability-normalized secreted streptokinase activity reduction – plasminogen activation absorbance, OD405, dose response (AID 1914).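 Note: secreted streptokinase activity via plasminogen activation per viability signal from cell pellet.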 Format: functional, Streptococcus pyogenes M1 GAS.

Assay [1] deals with Streptococcus sp. 'group A'. Put plainly: Streptococcus pyogenes SK(-)GAS viability under kanamycin – luminescence, BacTiterGlo, confirmation, counter-screen for streptokinase expression inhibitor project, dose response (AID 1900). In kind it is functional, organism-based. (The purpose of a counterscreen is to sort out artefacts and off-target activity.)
The subject of the next assay is Streptococcus. Put plainly: GAS UMAA2166 growth inhibition – luminescence, BacTiterGlo, counter-screen for streptokinase expression inhibitor project, dose response (AID 1915).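 Note: potency for reduction of bacterial viability or growth.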 Format: functional, organism-based.
For assay [2], the target named is Dual specificity tyrosine-phosphorylation-regulated kinase 1A (Rattus norvegicus, UniProt Q63470). Format: biochemical, Homo sapiens.
Assay [3] concerns the target Voltage-gated inwardly rectifying potassium channel KCNH2 (Homo sapiens, UniProt Q12809). The settings on record: Potency.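 Note: confirmatory quantitative high-throughput screen measuring inhibition of hERG channel activity.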
The target of assay [4] is T2, Sentrin-specific protease 1 (Homo sapiens, UniProt Q9P0U3). Put plainly: Dose response confirmation of small molecule inhibitors of the catalytic domain of the SUMO protease, SENP1 in a FRET assay. In kind it is functional. The settings on record: read-out: IC50_Mean.
Assay [5] deals with T3, Endoribonuclease toxin MazF (Escherichia coli K-12, UniProt P0AE70). As to the kind of experiment: substrate-only fluorescence increase artefacts – biochemical, single-stranded RNase substrate, counter-screen for MazEF activator project, dose response (AID 588502). In kind it is functional.
Assay [6] has as its target T3, Endoribonuclease toxin MazF. Put plainly: activation of MazEF endoribonuclease cleavage – biochemical, fluorescence, single-stranded RNA substrate, uHTS hits, dose response (AID 588481). In kind it is functional.
In assay [7] the target is T2, Sentrin-specific protease 1. As to the kind of experiment: SENP1 catalytic domain blockers, concentration series – biochemical, kinetic FRET, dose response (AID 651697). In kind it is functional. The settings on record: read-out: IC50_Mean.
For assay [8], the target named is T4, Alkaline phosphatase, tissue-nonspecific isozyme (Homo sapiens, UniProt P05186).
T4 sequence (P05186 whole entry): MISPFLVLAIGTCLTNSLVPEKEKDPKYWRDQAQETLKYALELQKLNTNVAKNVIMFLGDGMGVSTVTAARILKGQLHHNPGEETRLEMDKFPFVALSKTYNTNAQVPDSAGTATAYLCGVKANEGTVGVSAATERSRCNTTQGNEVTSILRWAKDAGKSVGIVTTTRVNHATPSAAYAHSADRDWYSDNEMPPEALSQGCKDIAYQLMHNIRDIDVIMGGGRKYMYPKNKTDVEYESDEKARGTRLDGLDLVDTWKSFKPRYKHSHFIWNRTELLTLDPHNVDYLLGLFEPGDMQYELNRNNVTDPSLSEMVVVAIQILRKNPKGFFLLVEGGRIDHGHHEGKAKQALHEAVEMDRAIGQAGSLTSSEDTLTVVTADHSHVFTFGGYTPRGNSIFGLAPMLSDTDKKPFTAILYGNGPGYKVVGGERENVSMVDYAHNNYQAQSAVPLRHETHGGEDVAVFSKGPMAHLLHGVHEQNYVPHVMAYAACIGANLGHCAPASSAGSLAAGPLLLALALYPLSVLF
As to the kind of experiment: TNAP enzyme inhibition by screening hits, dose response, selectivity assay for mouse IAP inhibitor project, biochemical, human TNAP, uHTS hits (AID 488906). In kind it is functional.

Assay [9] concerns the target Intestinal-type alkaline phosphatase (Mus musculus, UniProt P24822). As to the kind of experiment: PubChem AID 488785. Format: functional.
In assay [10] the target is Envelope glycoprotein gp160 (Human immunodeficiency virus 1, UniProt Q6QLK5). As to the kind of experiment: cell-free HIV fusion peptide-binding blockers – biochemical, uHTS, fluorescence dequenching, […] (AID 1986).
The target of assay [11] is T5, RNA-binding protein pos-1 (Caenorhabditis elegans, UniProt G5EF15).
T5 sequence (G5EF15 whole entry): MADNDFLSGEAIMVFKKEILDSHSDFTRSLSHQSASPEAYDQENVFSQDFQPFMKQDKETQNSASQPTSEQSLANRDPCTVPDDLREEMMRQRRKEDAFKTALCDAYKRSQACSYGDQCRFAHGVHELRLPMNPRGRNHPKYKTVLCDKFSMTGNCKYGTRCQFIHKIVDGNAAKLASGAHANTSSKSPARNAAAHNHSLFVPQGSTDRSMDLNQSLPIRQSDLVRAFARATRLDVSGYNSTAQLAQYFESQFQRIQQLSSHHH
Put plainly: disruptors of C. elegans POS-1 RNA interaction – biochemical, fluorescence polarization, dose response (AID 1964).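 Note: purified POS-1 fused to maltose binding protein made in E. coli; potency of compounds blocking POS-1 binding to fluorescent RNA.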 For orientation: Polarisation of emitted light reports the rotation of a fluorescent probe.

The target in assay [12] is Intestinal-type alkaline phosphatase (Homo sapiens, UniProt P09923). Put plainly: inhibition of human intestinal alkaline phosphatase – biochemical, dose response (AID 488876). Format: functional.
For a further assay, the target named is NS3 (Hepatitis C virus, UniProt A3EZJ3). Put plainly: PubChem AID 2173. Details: species or system Hepacivirus hominis.
Another assay deals with Large T antigen (Simian virus 40, UniProt P03070). In kind it is functional, Betapolyomavirus macacae.
In assay [13] the target is Beta-adrenergic receptor kinase 1 (Homo sapiens, UniProt P25098). Put plainly: aptamer displacement from bead-bound GRK2 – biochemical, cherry pick 1, bead flow cytometry, dose response (AID 504500). In general terms: In flow cytometry, cells or beads pass a laser one at a time.
The target in another assay is Genome polyprotein (dengue virus type 2, UniProt P29990). As to the kind of experiment: flavivirus cap methylation enzyme inhibition – biochemical, confirmation dose response, primary screen (AID 588689). Format: functional.
The next assay deals with A-375. As to the kind of experiment: proliferation inhibition in MITF-low A375 cells – cell-based, cherry-pick samples, set 2, counter-screen for MITF modulator project, dose response (AID 540335). Format: functional. The settings on record: Homo sapiens.
Assay [14] can be described thus: microbe, parasite or virus in culture. Format: functional. The settings on record: Mycobacterium tuberculosis.
A short description of assay [15]: Luminescence Cell-Based Dose Retest to Confirm Inhibitors of Cancer Stem Cells. [Related pubchem assays (depositor defined):AID2717, AID2721]. Format: functional, Homo sapiens. The settings on record: Homo sapiens.
A short description of assay [16]: HepG2 cell cytotoxicity, dose response, cytotoxicity control for non-replicating M. tuberculosis project (AID 489018). Format: functional. The settings on record: Mycobacterium tuberculosis.
A short description of assay [17]: viability of PTEN-deleted HCT116 cells – cell-based, HCT116 PTEN knockout, dose response (AID 1047).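 Note: HCT116 colon tumor cells with PTEN knocked out; cells exposed to compound for 60 hours before readout; potency for loss of cell viability measured by luminescence.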 In kind it is functional.
Assay [18] in a line: THP-1 cell cytotoxicity, dose response, cytotoxicity control for non-replicating M. tuberculosis project (AID 489025). Format: functional.
Another assay has as its target Nonstructural protein 1 (Influenza A virus, UniProt Q194T2). In kind it is functional, Influenza A virus (A/California/07/2009(H1N1)).
In assay [19] the target is T6, Microphthalmia-associated transcription factor (Homo sapiens, UniProt O75030).
T6 sequence (O75030 whole entry): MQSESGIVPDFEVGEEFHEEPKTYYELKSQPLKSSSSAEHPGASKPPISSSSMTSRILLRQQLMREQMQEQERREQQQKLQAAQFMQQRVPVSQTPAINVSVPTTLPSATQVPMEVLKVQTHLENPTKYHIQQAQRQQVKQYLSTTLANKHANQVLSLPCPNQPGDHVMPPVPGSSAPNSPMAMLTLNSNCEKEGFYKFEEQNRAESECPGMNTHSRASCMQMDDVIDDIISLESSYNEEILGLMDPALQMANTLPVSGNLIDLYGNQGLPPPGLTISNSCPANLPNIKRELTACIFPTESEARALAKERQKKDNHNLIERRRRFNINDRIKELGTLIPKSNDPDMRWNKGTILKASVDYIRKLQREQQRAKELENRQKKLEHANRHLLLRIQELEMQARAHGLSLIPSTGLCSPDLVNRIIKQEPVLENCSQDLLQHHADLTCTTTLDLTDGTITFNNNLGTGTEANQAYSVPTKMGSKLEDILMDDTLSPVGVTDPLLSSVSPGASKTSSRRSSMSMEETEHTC
Put plainly: reducers of TRPM1 reporter luminescence, concentration series – cell-based, SK-MEL-5, cherry-picked, set 3, MITF inhibitor project, dose response (AID 493073).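 Note: SK-MEL-5 melanoma cells with luciferase driven by the MITF target TRPM1 promoter.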 Format: functional.

Assay [20] can be described thus: viability of HCT116 lacking mutant beta-catenin – cell-based, human colon tumor, dose response (AID 1045).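 Note: HCT116 colon tumor cells with beta catenin knocked out; cells exposed to compound for 60 hours.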 In kind it is functional.
A short description of assay [21]: Vero E6 cell cytotoxicity, dose response, cytotoxicity control for non-replicating M. tuberculosis project, secondary assay (AID 492998). In kind it is functional, VeroE6. The settings on record: Vero C1008.
In assay [22] the target is T7, DNA repair protein RAD52 homolog (Homo sapiens, UniProt P43351).
T7 sequence (P43351 whole entry): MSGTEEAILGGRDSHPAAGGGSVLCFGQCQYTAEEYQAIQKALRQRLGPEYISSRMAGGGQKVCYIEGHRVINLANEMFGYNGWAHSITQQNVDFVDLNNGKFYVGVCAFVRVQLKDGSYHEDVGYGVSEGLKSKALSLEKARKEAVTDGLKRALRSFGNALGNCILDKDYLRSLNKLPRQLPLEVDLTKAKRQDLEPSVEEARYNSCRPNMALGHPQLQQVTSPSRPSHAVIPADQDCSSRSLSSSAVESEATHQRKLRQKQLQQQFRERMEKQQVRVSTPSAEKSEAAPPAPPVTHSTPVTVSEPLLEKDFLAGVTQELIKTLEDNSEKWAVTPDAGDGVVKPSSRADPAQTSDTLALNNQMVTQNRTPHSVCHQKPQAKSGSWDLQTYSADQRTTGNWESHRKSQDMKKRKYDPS
In kind it is functional, biochemical.

Another assay can be described thus: cells. Format: functional.
For another assay, the system named is HeLa. Put plainly: ATP-based viability loss in HeLa cells – cell-based, CellTiter-Glo luminescence, cherry-pick samples, cytotoxicity control for MITF activator project, dose response (AID 540259). Format: functional. The settings on record: Homo sapiens.
The target of another assay is Phospholipase D2 (Homo sapiens, UniProt O14939). Put plainly: cellular phospholipase D2 inhibition IC50 – cell-based, dose response (AID 602147).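 Note: cellular assay in HEK293 cells overexpressing GFP-tagged PLD2.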 Format: functional.
The next assay concerns the target Phospholipase D1 (Homo sapiens, UniProt Q13393). Put plainly: cellular phospholipase D1 inhibition IC50 – cell-based, dose response (AID 602151).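 Note: cellular PLD1 assay in Calu-1 cells stimulated with PMA.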 In kind it is functional.

T3 sequence (P0AE70 whole entry): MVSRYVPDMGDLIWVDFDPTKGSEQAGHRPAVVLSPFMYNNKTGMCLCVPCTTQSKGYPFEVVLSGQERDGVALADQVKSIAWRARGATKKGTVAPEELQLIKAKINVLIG
T2 sequence (Q9P0U3 whole entry, the tested form may be a part): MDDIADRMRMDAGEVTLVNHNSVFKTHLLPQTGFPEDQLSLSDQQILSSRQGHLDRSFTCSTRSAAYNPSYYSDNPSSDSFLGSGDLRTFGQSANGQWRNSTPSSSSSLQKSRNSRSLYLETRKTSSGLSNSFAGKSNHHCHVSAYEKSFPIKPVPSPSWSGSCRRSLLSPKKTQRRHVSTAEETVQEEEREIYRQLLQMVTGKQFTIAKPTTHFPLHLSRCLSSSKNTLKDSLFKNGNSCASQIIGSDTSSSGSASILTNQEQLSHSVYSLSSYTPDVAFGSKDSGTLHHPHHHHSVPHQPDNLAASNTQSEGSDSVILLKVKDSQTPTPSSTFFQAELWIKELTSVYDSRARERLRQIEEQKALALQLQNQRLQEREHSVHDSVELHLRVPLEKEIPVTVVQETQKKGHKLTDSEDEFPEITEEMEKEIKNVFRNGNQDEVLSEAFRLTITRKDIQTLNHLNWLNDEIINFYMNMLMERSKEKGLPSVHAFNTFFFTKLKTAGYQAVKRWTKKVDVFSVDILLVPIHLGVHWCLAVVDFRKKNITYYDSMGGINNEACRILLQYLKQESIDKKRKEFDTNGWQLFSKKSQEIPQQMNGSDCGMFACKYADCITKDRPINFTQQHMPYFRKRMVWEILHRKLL
Envelope glycoprotein gp160, sequence (Q6QLK5 whole entry, the tested form may be a part): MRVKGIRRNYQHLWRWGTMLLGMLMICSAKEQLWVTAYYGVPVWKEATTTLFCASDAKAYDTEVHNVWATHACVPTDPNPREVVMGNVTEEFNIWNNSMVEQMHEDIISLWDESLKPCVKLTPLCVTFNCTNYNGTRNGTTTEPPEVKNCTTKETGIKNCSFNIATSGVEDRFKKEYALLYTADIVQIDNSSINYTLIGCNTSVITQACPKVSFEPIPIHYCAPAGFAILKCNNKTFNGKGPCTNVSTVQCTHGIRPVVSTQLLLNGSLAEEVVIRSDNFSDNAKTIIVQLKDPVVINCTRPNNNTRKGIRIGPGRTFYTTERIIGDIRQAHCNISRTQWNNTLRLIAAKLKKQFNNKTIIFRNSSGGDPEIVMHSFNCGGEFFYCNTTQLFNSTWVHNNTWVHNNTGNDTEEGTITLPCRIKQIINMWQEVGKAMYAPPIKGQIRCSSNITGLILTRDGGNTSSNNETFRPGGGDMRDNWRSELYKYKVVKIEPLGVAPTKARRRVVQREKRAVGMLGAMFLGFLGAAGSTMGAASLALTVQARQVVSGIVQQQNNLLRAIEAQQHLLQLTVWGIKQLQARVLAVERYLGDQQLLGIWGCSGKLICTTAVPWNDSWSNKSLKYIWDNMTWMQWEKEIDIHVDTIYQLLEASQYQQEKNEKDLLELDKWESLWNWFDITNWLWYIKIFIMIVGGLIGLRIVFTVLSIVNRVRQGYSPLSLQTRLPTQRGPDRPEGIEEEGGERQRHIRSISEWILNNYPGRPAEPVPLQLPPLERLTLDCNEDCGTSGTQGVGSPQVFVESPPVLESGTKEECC
Phospholipase D1, sequence (Q13393 whole entry): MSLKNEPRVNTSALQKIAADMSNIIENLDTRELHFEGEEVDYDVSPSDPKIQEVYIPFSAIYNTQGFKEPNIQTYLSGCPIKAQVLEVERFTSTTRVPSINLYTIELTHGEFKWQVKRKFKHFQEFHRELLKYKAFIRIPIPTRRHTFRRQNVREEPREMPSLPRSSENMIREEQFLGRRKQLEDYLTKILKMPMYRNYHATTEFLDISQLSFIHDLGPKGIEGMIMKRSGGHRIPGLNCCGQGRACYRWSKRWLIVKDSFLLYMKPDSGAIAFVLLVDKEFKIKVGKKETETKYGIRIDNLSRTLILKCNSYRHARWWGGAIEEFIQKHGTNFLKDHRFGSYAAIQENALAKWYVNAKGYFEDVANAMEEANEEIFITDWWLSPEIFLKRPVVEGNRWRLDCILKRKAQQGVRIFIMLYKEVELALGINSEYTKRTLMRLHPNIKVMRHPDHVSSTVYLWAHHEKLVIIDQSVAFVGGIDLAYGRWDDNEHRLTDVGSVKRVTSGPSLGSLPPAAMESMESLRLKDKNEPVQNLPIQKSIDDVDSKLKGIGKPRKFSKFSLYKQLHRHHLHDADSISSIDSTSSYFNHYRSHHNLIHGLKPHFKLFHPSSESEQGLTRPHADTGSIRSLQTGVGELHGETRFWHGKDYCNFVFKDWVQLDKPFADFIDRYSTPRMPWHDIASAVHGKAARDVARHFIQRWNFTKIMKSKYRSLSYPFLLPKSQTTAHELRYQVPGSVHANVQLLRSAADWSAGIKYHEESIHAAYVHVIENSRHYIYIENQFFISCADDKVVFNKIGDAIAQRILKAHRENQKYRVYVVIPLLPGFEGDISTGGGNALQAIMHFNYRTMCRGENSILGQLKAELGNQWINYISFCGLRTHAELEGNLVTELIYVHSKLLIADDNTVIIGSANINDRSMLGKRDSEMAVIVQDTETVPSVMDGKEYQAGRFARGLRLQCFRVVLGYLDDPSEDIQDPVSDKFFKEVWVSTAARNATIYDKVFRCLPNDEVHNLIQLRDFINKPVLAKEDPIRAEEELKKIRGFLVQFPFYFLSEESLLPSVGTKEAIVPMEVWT
Genome polyprotein, sequence (P29990 2492-3391 limits assumed): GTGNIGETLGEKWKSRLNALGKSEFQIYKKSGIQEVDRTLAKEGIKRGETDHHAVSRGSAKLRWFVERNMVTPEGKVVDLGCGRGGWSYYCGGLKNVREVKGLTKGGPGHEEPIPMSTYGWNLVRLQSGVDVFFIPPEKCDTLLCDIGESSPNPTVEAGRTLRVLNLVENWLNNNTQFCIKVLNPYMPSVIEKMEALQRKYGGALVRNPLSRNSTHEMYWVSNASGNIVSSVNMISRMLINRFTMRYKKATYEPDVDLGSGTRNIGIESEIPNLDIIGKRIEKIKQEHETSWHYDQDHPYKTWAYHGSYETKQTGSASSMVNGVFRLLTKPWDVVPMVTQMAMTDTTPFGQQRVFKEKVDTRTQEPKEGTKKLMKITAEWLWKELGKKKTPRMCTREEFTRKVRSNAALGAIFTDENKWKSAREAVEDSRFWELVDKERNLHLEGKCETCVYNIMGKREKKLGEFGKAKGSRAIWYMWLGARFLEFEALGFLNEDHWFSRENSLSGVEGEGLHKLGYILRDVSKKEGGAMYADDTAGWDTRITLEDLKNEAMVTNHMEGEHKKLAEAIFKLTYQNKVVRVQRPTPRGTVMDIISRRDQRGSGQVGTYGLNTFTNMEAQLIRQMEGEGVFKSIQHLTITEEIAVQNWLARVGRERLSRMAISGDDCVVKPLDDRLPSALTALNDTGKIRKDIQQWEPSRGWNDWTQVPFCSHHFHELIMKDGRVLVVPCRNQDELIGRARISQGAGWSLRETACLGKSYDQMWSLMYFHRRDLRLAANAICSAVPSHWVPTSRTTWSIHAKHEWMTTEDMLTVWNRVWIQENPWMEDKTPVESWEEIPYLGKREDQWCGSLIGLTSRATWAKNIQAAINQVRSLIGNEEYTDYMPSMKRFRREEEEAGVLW
Large T antigen, sequence (P03070 whole entry): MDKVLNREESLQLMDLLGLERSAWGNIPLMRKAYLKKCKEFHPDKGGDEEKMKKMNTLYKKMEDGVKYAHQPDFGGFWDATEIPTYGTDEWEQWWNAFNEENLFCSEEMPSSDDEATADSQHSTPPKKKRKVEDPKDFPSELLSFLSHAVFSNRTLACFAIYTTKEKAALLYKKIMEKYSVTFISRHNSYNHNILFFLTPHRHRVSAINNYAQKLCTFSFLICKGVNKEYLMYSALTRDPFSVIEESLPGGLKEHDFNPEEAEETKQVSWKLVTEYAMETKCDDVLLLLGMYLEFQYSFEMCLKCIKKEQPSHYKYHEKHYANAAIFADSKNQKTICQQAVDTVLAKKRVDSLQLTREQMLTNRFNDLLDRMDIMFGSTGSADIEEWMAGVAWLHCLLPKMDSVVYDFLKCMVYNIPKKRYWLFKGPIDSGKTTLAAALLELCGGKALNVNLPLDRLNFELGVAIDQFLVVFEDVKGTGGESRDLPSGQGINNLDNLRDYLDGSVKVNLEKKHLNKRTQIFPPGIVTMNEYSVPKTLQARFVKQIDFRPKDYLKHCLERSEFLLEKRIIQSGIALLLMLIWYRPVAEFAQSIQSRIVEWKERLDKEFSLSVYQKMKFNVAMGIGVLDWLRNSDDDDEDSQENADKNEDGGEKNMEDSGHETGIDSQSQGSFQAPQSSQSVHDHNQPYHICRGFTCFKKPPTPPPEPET
Intestinal-type alkaline phosphatase (Homo sapiens, UniProt P09923), sequence (P09923 whole entry): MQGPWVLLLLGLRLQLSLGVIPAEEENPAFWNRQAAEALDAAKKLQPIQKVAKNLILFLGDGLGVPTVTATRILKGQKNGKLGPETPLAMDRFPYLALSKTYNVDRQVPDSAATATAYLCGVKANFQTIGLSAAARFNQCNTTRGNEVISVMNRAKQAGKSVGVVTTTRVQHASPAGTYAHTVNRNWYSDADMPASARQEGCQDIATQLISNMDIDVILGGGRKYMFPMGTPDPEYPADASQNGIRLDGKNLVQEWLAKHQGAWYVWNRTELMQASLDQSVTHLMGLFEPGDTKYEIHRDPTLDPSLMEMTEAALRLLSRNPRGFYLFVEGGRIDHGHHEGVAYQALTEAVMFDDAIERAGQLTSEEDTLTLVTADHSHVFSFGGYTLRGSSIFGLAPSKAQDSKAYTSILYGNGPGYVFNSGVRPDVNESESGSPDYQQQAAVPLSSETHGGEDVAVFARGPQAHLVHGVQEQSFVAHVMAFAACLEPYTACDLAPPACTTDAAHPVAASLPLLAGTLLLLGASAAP
Nonstructural protein 1, sequence (Q194T2 whole entry): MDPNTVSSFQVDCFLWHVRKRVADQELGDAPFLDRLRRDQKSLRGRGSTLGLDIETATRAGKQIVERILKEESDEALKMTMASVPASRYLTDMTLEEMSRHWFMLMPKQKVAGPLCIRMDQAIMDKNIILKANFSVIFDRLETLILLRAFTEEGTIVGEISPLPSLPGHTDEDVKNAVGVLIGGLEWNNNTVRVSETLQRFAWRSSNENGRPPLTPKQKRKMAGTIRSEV

Regarding `CC1CCc2c(C(=O)Nc3cccc(-c4nn[nH]n4)c3)csc2C1` (stereo not drawn), the figures for the EC50 (at Streptokinase A; in assay [1]; in the assay on Streptococcus) were 27.3 µM (active), 127 µM (active) and > 150 µM (not active), respectively. Also, the AC50 in assay [2] was 8.35 µM (active).

Regarding `Brc1cc(Br)c(Oc2cc(Br)c(Br)cc2Br)cc1Br`, the AC50 in assay [3] was 17.8 µM (inconclusive).

On to `O=C(CCN1C(=O)/C(=C/c2cccs2)SC1=S)NNC(=O)c1cccc(O)c1`, for which the IC50 in [4] is 21.9 µM (inactive); in [7] it was 16.2 µM (active). Also, the EC50 in [5] and in [6] was > 99 µM (inactive) each time.

Consider `COc1ccc(N2C(=O)/C(=C/c3ccco3)C(=O)NC2=S)cc1`, for which the IC50 was 32.4 µM (active) in assay [8]; 16.2 µM (active) in assay [9]; 22.3 µM (active) in assay [10]; 46 µM (active) in assay [12]; 4.61 µM (active) on NS3; 10.8 µM (active) at Large T antigen. Moreover, the IC50 at Genome polyprotein is > 100 µM (active). In addition, the EC50 in [11] is 5.3 µM (active); in assay [13], 7.83 µM (active).

Consider `CCN(Cc1ccccc1)c1ccc(/C=N/N=C(N)N)cc1`, for which the half-maximal activity concentration (AC50) in the assay with A-375 is 18.4 µM (active); in assay [15], 2.61 µM (active); in assay [19] it was 6.37 µM (active); in assay [22], 6.26 µM (active). In addition, the CC50 is 9.2 µM (active) in [14], 7.93 µM (active) in [16], 7.49 µM (active) in [18] and 8.36 µM (active) in [21]. Moreover, the EC50 in assay [17] was 3.27 µM (active); in assay [20], 3.35 µM (active). Besides, the IC50 on Nonstructural protein 1 was 39.3 µM (active); in the assay “cells”, 10.9 µM (active).

Consider `COC(=O)c1ccc(/C=N/Nc2nc(C)c(C)s2)cc1`, for which the AC50 in the assay on HeLa is 69.8 µM (active).

Take `O=C(NCCN1CCC(C(=O)NCCc2ccccn2)CC1)c1ccc2ccccc2c1`: the IC50 is 4.2 µM (active) on Phospholipase D2 and 20 µM (active) on Phospholipase D1.
